Data set [1] deals with C. difficile ATCC BAA 1801. Kind of data set: MIC, broth microdilution, initial screening. It is filed as cell-based, Clostridioides difficile. For orientation: Broth dilution looks for growth in wells or tubes with falling amounts of substance.
Data set [2] deals with E. coli JW55031 (TolC Mutant). The experiment in a line: MIC, broth microdilution. The class given is cell-based. The conditions noted are these: Escherichia coli.
Data set [3] deals with C. difficile infection (CDI). The note with it: cited from earlier work.
Data set [4] relates to C. difficile NR-13435 (isolate 9). Kind of data set: MIC, broth microdilution, clinical isolate. It is filed as cell-based. The note with it: Clostridioides difficile.
For another data set, the system named is Lactobacillus strains. The experiment in a line: MIC over Lactobacillus strains. The class given is cell-based, Lactobacillus spp. The note with it: read-out: MIC against Lactobacillus strains.
Data set [5] concerns C. difficile ATCC 43255. The experiment in a line: Frequency of spontaneous mutation.
Data set [6] relates to Lactobacillus crispatus HM-103. Kind of data set: MIC against normal gut microbiota. It is filed as cell-based. The conditions noted are these: HM103.
A further data set deals with E. faecium ATCC 700221. Kind of data set: MIC, broth microdilution. It is filed as cell-based. The conditions noted are these: Enterococcus faecium, ATCC700221.
Data set [7] relates to C. difficile NR-32891 (P13). The experiment in a line: MIC, broth microdilution, clinical isolate. It is filed as cell-based. The conditions noted are these: Clostridioides difficile.
For another data set, the system named is E. faecalis ATCC 51299. Kind of data set: MIC, broth microdilution. It is filed as cell-based. The note with it: Enterococcus faecalis, ATCC51299.
In another data set the test system is Bacteroides spp. Kind of data set: MIC over Bacteroides species. The class given is cell-based. The note with it: read-out: MIC against species of Bacteroides.
Data set [8] deals with Bacteroides fragilis HM-709. The experiment in a line: MIC against normal gut microbiota. It is filed as cell-based. The note with it: HM709.
In data set [9] the test system is C. difficile NR-32904 (P30). The experiment in a line: MIC, broth microdilution, clinical isolate. It is filed as cell-based. The note with it: Clostridioides difficile.
In data set [10] the test system is E. coli BW25113 (wild-type strain). The experiment in a line: MIC, broth microdilution. It is filed as cell-based, Escherichia coli. The note with it: Escherichia coli, BW25113.
Data set [11] relates to Bacteroides fragilis HM-711. Kind of data set: MIC against normal gut microbiota. The note with it: HM711. The class given is cell-based.
Data set [12] relates to C. difficile NR-32895 (P19). The experiment in a line: MIC, broth microdilution, clinical isolate. The note with it: Clostridioides difficile. It is filed as cell-based.
Data set [13] has as its system C. difficile ATCC 43255. Kind of data set: MIC, broth microdilution, clinical isolate. The conditions noted are these: Clostridioides difficile, ATCC43255. It is filed as cell-based.
The subject of data set [14] is C. difficile NR-13432 (isolate 6). Kind of data set: MIC, broth microdilution, clinical isolate. The note with it: Clostridioides difficile. It is filed as cell-based.
Data set [15] deals with Lactobacillus crispatus HM-371. Kind of data set: MIC against normal gut microbiota. It is filed as cell-based. The conditions noted are these: HM371.
Data set [16] relates to Lactobacillus gasseri HM-400. Kind of data set: MIC against normal gut microbiota. It is filed as cell-based. The conditions noted are these: HM400.
The test system of data set [17] is C. difficile NR-32883 (P2). Kind of data set: MIC, broth microdilution, clinical isolate. The class given is cell-based. The note with it: Clostridioides difficile.
The test system of a further data set is Caco-2 bilayers. Kind of data set: Caco-2 bidirectional permeability assay. The class given is in vitro ADME, human. (Passage across Caco-2 layers is used to estimate intestinal permeability.)
Where [18] appears, read: Clostridioides difficile, BAA1801, 48 h, C. difficile ATCC BAA 1801, anaerobic, 48 hours.

Structures are written as SMILES. Values after ≈ are worked out from the molar mass of the structure shown. Values joined by “and” are separate entries in the source; they are usually repeats but may differ in a detail not shown here. Equal values may be shown once.

Broadly, the MIC is the lowest concentration found to suppress growth.

Regarding `CC(C)c1ccc(-c2nnc(NC(=O)c3ccc(SC(F)(F)F)cc3)o2)cc1` [compound 13, N-(5-(4-Isopropylphenyl)-1,3,4-oxadiazol-2-yl)-4-((trifluoromethyl)thio)benzamide], the “activity against C. difficile ATCC BAA 1801 in words” value (“activity” below) in data set [1] is reported as “only moderate to no actvity”. This compound also registered an MIC in data set [1] (setting [18]) of 128 µg/mL (≈ 314 µM).
`CN[C@H](CC(C)C)C(=O)N[C@H]1C(=O)N[C@@H](CC(N)=O)C(=O)N[C@H]2C(=O)N[C@H]3C(=O)N[C@H](C(=O)N[C@H](C(=O)O)c4cc(O)cc(O)c4-c4cc3ccc4O)[C@H](O)c3ccc(c(Cl)c3)Oc3cc2cc(c3O[C@@H]2O[C@H](CO)[C@@H](O)[C@H](O)[C@H]2O[C@H]2C[C@](C)(N)[C@H](O)[C@H](C)O2)Oc2ccc(cc2Cl)[C@H]1O` [Vancomycin]: the minimum inhibitory concentration (MIC) in data set [2] was > 64 µg/mL; in [4], 1 µg/mL (≈ 0.69 µM); in the data set on Lactobacillus strains, 1 µg/mL to 2 µg/mL and 0.7 µM to 1.4 µM; in data set [6] it was 2 µg/mL (≈ 1.38 µM); with E. faecium ATCC 700221 it was 32 µg/mL (≈ 22.1 µM); in data set [7] it was 0.5 µg/mL (≈ 0.345 µM). For the same compound, the minimum inhibitory concentration (MIC) against E. faecalis ATCC 51299 was > 64 µg/mL; with Bacteroides spp, 32 µg/mL to 64 µg/mL and 22.1 µM to 44.2 µM; in data set [1] (Clostridioides difficile, BAA1801, 48 h), 1 µg/mL (≈ 0.69 µM); in [8], 32 µg/mL (≈ 22.1 µM); in data set [9] it was 1 µg/mL (≈ 0.69 µM); in data set [10], > 64 µg/mL. Also, the MIC was 64 µg/mL (≈ 44.2 µM) in data set [11]; 1 µg/mL (≈ 0.69 µM) in [12]; 1 µg/mL (≈ 0.69 µM) against C. difficile ATCC 43255 [13]; 0.25 µg/mL (≈ 0.173 µM) in [14]; 2 µg/mL (≈ 1.38 µM) in data set [15]; ≤ 1 µg/mL and ≤ 0.7 µM in [16]. In data set [17], it took 0.5 µg/mL (≈ 0.345 µM) to inhibit growth (MIC). Also, the treatment failure in [3] was 14%. For the same compound, the “Frequency of mutation” value in the data set on C. difficile ATCC 43255 [5] (15 × MIC and 20 × MIC) is given as < 1.1× 10^−9; in the data set with C. difficile ATCC 43255 [5] (15 × MIC, inoculum ~10^9 CFU/mL), <1.1× 10^−9; in the data set on C. difficile ATCC 43255 [5] (20 × MIC, inoculum ~10^9 CFU/mL), <1.1× 10^−9. In the data set with C. difficile ATCC 43255 [5] (15 × MIC and 20 × MIC, high inoculum), the “isolation of resistant mutants” value is “no resistant mutants were isolated”.
Regarding `CC(=O)NC[C@H]1CN(c2ccc(N3CCOCC3)c(F)c2)C(=O)O1` [Linezolid], the minimum inhibitory concentration (MIC) was 16 µg/mL (≈ 47.4 µM) in data set [2]; 1 µg/mL (≈ 2.96 µM) against E. faecium ATCC 700221; 1 µg/mL (≈ 2.96 µM) with E. faecalis ATCC 51299; > 64 µg/mL and > 190 µM in data set [10].
The compound `O=C(Nc1nnc(-c2ccccc2Cl)o1)c1ccc(SC(F)(F)F)cc1` [compound 3, N-(5-(2-Chlorophenyl)-1,3,4-oxadiazol-2-yl)-4-((trifluoromethyl)thio)benzamide] had an MIC in data set [1] (setting [18]) of 4 µg/mL (≈ 10 µM).
With `CNC(=C[N+](=O)[O-])NCCSCc1ccc(CN(C)C)o1` [Ranitidine], the “Notes (permeability class)” value in the data set with Caco-2 bilayers was “Low Permeability Control”.
For `O=C(Nc1nnc(-c2ccccc2)o1)c1ccc(SC(F)(F)F)cc1` [compound 1, N-(5-Phenyl-1,3,4-oxadiazol-2-yl)-4-((trifluoromethyl)thio)benzamide], the MIC in data set [1] (setting [18]) was determined as 2 µg/mL (≈ 5.47 µM).
The same measure, in the same setting: to `O=C(Nc1nnc(-c2ccccc2F)o1)c1ccc(SC(F)(F)F)cc1` [compound 2, N-(5-(2-Fluorophenyl)-1,3,4-oxadiazol-2-yl)-4-((trifluoromethyl)thio)benzamide] belongs 4 µg/mL (≈ 10.4 µM); to `COc1ccc(Cl)cc1-c1nnc(NC(=O)c2ccc(SC(F)(F)F)cc2)o1` [compound 16, N-(5-(5-Chloro-2-methoxyphenyl)-1,3,4-oxadiazol-2-yl)-4-((trifluoromethyl)thio)benzamide], 2 µg/mL (≈ 4.65 µM); to `O=C(Nc1nnc(-c2cccc(C(F)(F)F)c2)o1)c1ccc(SC(F)(F)F)cc1` [compound 7, N-(5-(3-Trifluoromethylphenyl)-1,3,4-oxadiazol-2-yl)-4-((trifluoromethyl)thio)benzamide], 0.015 µg/mL (≈ 0.0346 µM).
As to `COc1cccc(-c2nnc(NC(=O)c3ccc(SC(F)(F)F)cc3)o2)c1` [compound 6, N-(5-(3-Methoxyphenyl)-1,3,4-oxadiazol-2-yl)-4-((trifluoromethyl)thio)benzamide], the “activity” value in data set [1] is listed as “only moderate to no actvity”. This compound also registered an MIC in data set [1] (setting [18]) of 4 µg/mL (≈ 10.1 µM).
`O=C(Nc1nnc(-c2ccc(C(F)(F)F)cc2)o1)c1ccc(SC(F)(F)F)cc1` [compound 10, N-(5-(4-Trifluoromethylphenyl)-1,3,4-oxadiazol-2-yl)-4-((trifluoromethyl)thio)benzamide] returned an MIC in [1] (setting [18]) of 0.125 µg/mL (≈ 0.288 µM).
Consider `O=C(Nc1nnc(-c2ccc(Cl)cc2)o1)c1ccc(SC(F)(F)F)cc1` [compound 9, N-(5-(4-Chlorophenyl)-1,3,4-oxadiazol-2-yl)-4-((trifluoromethyl)thio)benzamide], for which the minimal inhibitory concentration (MIC) in data set [1] (setting [18]) was 2 µg/mL (≈ 5 µM).
On the same count and under the same terms, to `O=C(Nc1nnc(-c2cccc(F)c2)o1)c1ccc(SC(F)(F)F)cc1` [compound 4, N-(5-(3-Fluorophenyl)-1,3,4-oxadiazol-2-yl)-4-((trifluoromethyl)thio)benzamide] belongs 0.03 µg/mL (≈ 0.0783 µM).
With `O=C(Nc1nnc(-c2ccc(Cl)cc2Cl)o1)c1ccc(SC(F)(F)F)cc1` [compound 14, N-(5-(2,4-Dichlorophenyl)-1,3,4-oxadiazol-2-yl)-4-((trifluoromethyl)thio)benzamide], the minimum inhibitory concentration (MIC) in data set [1] (C. difficile ATCC BAA 1801, anaerobic, 48 hours) came out at 0.03 µg/mL (≈ 0.0691 µM); in data set [1] (setting [18]) it was 0.06 µg/mL (≈ 0.138 µM).
Consider `CNC(C)C1CCC(N)C(OC2C(N)CC(N)C(OC3OCC(C)(O)C(NC)C3O)C2O)O1` (stereo not shown) [Gentamicin], for which the minimal inhibitory concentration (MIC) in data set [2] is 0.25 µg/mL and 0.52 µM; in data set [10], 0.25 µg/mL and 0.52 µM.
The compound `O=C(Nc1nnc(-c2ccc(F)cc2)o1)c1ccc(SC(F)(F)F)cc1` [compound 8, N-(5-(4-Fluorophenyl)-1,3,4-oxadiazol-2-yl)-4-((trifluoromethyl)thio)benzamide] gave an MIC in data set [1] (setting [18]) of 4 µg/mL (≈ 10.4 µM).
Turning to `O=C(Nc1nnc(-c2cccc(Cl)c2)o1)c1ccc(SC(F)(F)F)cc1` [compound 5, N-(5-(3-Chlorophenyl)-1,3,4-oxadiazol-2-yl)-4-((trifluoromethyl)thio)benzamide], in data set [1] (setting [18]), the minimal inhibitory concentration (MIC) came out at 0.03 µg/mL (≈ 0.075 µM).
In the case of `COc1ccc(-c2nnc(NC(=O)c3ccc(SC(F)(F)F)cc3)o2)cc1` [compound 11, N-(5-(4-Methoxyphenyl)-1,3,4-oxadiazol-2-yl)-4-((trifluoromethyl)thio)benzamide], in data set [1], the “activity” value is recorded as “only moderate to no actvity”. In [1] (setting [18]), the minimum inhibitory concentration (MIC) was found to be 4 µg/mL (≈ 10.1 µM).
On to `CCc1c(Cl)c(O)c(Cl)c(O)c1C(=O)O[C@H]1[C@H](O)[C@H](OC)[C@H](OC/C2=C\C=C\C[C@H](O)/C(C)=C/[C@H](CC)[C@@H](O[C@@H]3OC(C)(C)[C@@H](OC(=O)C(C)C)[C@H](O)[C@@H]3O)/C(C)=C/C(C)=C/C[C@@H]([C@@H](C)O)OC2=O)O[C@@H]1C` [Fidaxomicin], for which the minimum inhibitory concentration (MIC) was > 64 µg/mL and > 60.5 µM in data set [6]; 0.015 µg/mL (≈ 0.0142 µM) in data set [7]; > 64 µg/mL in data set [8]; 0.015 µg/mL (≈ 0.0142 µM) in data set [9]; > 64 µg/mL and > 60.5 µM in [11]; 0.015 µg/mL (≈ 0.0142 µM) against C. difficile ATCC 43255 [13]. Also, the minimal inhibitory concentration (MIC) in data set [15] and in data set [16] was > 64 µg/mL each time.
For the compound `O=C(Nc1nnc(-c2ccccn2)o1)c1ccc(SC(F)(F)F)cc1` [compound 17, N-(5-(Pyridin-2-yl)-1,3,4-oxadiazol-2-yl)-4-((trifluoromethyl)thio)benzamide], the “activity” value in data set [1] is “only moderate activity”. Further, it took 8 µg/mL (≈ 21.8 µM) to inhibit growth in [1] (setting [18]) (MIC).
With `CC(C)NCC(O)COc1cccc2ccccc12` (stereo not shown) [Propranolol], the “Notes (permeability class)” value with Caco-2 bilayers was “High Permeability Control”.
With `Cc1ccc(-c2nnc(NC(=O)c3ccc(SC(F)(F)F)cc3)o2)cc1` [Compound 12, N-(5-(4-Methylphenyl)-1,3,4-oxadiazol-2-yl)-4-((trifluoromethyl)thio)benzamide], in [1], the “activity” value is on record as “only moderate to no actvity”.

The record behind these values is publication PMC9064041 (Journal of medicinal chemistry, 2020).
